Measured values published in US6596713B1, “Steroid esters and amides, process for their production and their pharmaceutical use” (priority 1994, dated 2003).

Assay type: physicochemical
Settings: temperature in which 50 mg of substance is dissolved in 1 ml of a 1:4 benzyl benzoate/castor oil mixture; lower temperature = better solubility

Row | Solubility [°C] | Compound
1 | 23 | [S-(Z)]-6′-(4-Fluorophenyl)-9,11α-dihydro-17α-[3-[2-[[(1,1-dimethylethoxy)carbonyl]amino]-1-oxopropoxy]-1-propenyl]-17β-hydroxy-4′H-naphtho[3′,2′,1′:10,9,11]estr-4-en-3-one [Example 41]
2 | 23 | (S)-6′-(4-Fluorophanyl)-9,11α-dihydro-17α-[3-[2-[[(1,1-dimethylethoxy)carbonyl]amino]-1-oxopropoxy]-1-propinyl]-17β-hydroxy-4′H-naphtho[3′,2′,1′;10,9,11]estr-4-en-3-one [Example 42]
3 | 50 | [S-(Z)]-9,11α-Dihydro-17α-[3-[2-[[(1,1-dimethylethoxy)carbonyl]amino]-1-oxopropoxy]-1-propenyl]-17β-hydroxy-6′-(3-pyridinyl)-4′H-naphtho[3′,2′,1′:10,9,11]estr-4-en-3-one [Example 24]
4 | 23 | [S-(Z)]-9,11α-Dihydro-17α-[3-[[[(1,1-dimethylethoxy)carbonyl]amino]acetyloxy]-1-propenyl]-17β-hydroxy-6′-(3-pyridinyl)-4′H-naphtho[3′,2′,1′:10,9,11]estr-4-en-3-one [Example 35]
5 | 100 | CC12CC3c4ccc(-c5ccc(C#N)cc5)cc4CC45CCC(=O)C=C4CCC(C35)C1CCC2(O)C=CCOC(=O)CN (stereo not drawn) [Example 12, (Z)-17α-[3-[(Aminoacetyl)oxy]-1-propenyl]-6′-(4-cyanophenyl)-9,11α-dihydro-17β-hydroxy-4′H-naphtho[3′,2′,1′:10,9,11]estr-4-en-3-one]
6 | 50 | CCCCCCC(=O)OCC=CC1(O)CCC2C3CCC4=CC(=O)CCC45Cc4cc(-c6cccnc6)ccc4C(CC21C)C35 (stereo not drawn) [Example 20, (Z)-9,11α-Dihydro-17βhydroxy-17α-[3-[(1-oxoheptyl)oxy]-1-propenyl]-6′-(3-pyridinyl)-4′H-naphtho[3′,2′,1′:10,9,11]estr-4-en-3-one]
7 | 50 | (Z)-9,11α-Dihydro-17β-hydroxy-17α-[3-(1-oxopropoxy)-1-propenyl]-6′-(3-pyridinyl)-4′H-naphtho[3′,2′,1′:10,9,11]estr-4-en-3-one [Example 18]
8 | 23 | (Z)-6′-(4-Cyanophenyl)-9,11α-dihydro-17β-hydroxy-17α-[3-[(1-oxoheptyl)oxy]-1-propenyl]-4′H-naphtho[3′,2′,1′:10,9,11]estr-4-en-3-one [Example 3]

Row | Compound | Solubility [°C]
9 | [S-(Z)]-17α-[3-(2-Amino-3-methyl-1-oxobutoxy)-1-propenyl]-6′-(4-cyanophenyl)-9,11α-dihydro-17β-hydroxy-4′H-naphtho[3′,2′,1′:10,9,11]estr-4-en-3-one [Example 16] | 100
10 | (Z)-9,11α-Dihydro-17α-[3-(1,4-dioxo-4-ethoxybutoxy)-1-propenyl]-17β-hydroxy-6′-(3-pyridinyl)-4′H-naphtho[3′,2′,1′:10,9,11]estr-4-en-3-one [Example 22] | 50
11 | (Z)-9,11α-Dihydro-17α-[3-(3,3-dimethyl-1-oxobutoxy)-1-propenyl]-6′-(3-pyridinyl)-17βhydroxy-4′H-naphtho[3′,2′,1′:10,9,11]estr-4-en-3-one [Example 21] | 50
12 | CC(NC(=O)OC(C)(C)C)C(=O)OCC=CC1(O)CCC2C3CCC4=CC(=O)CCC4C3C(c3ccc(N(C)C)cc3)CC21C (stereo not drawn) [Example 31, [S-(Z)]-11β-[4-(Dimethylamino)phenyl]-17α-[3-[2-[[(1,1-dimethylethoxy)carbonyl]amino]-1-oxopropoxy]-1-propenyl]-17β-hydroxyestr-4-en-3-one] | 23
13 | [S-(Z)]-6′-(4-Cyanophenyl)-9,11α-dihydro-17α-[3-[2-[[(1,1-dimethylethoxy)carbonyl]amino]-3-methyl-1-oxobutoxy]-17β-hydroxy-4′H-naphtho[3′,2′,1′:10,9,11]estr-4-en-3-one [Example 17] | 50
14 | CC(C)(C)OC(=O)NCC(=O)OCC=CC1(O)CCC2C3CCC4=CC(=O)CCC4C3C(c3ccc(-c4ccc(C#N)cc4)cc3)CC21C (stereo not drawn) [Example 38, [S-(Z)]-4′-[17α-[3-[[[(1,1-Dimethylethoxy)carbonyl]-amino]acetyloxy]-1-propenyl]-17β-hydroxy-3-oxoestr-4-en-11β-yl][1,1′-biphenyl]-4-carbonitrile] | 23
